In the NIST ThermoML archive (doi:10.1021/acs.jced.6b00513):
± gives the expanded uncertainty stated by the source.

Details: 298.2 K, 101.3 kPa, Buoyancy - hydrostatic balance

| mass density (Metastable liquid) [kg/m3] | Structure (SMILES) | mass density (Liquid) [kg/m3] |
| --- | --- | --- |
|  | Cc1cc(C)cc(C)c1 [1,3,5-trimethylbenzene] | 864 ± 6 |
|  | Cc1cccc(O)c1 [3-methylphenol] | 1034.5 ± 6 |
|  | CC(=O)CC(C)C [4-methylpentan-2-one] | 799.8 ± 6 |
| 1034.4 ± 6 | Cc1ccc(O)cc1 [4-methylphenol] |  |
|  | CCCCOC(C)=O [butyl ethanoate] | 882.2 ± 6 |
|  | CO [methanol] | 791 ± 6 |
|  | O [water] | 997.2 ± 6 |
